Molecules are shown by their SMILES.

This experiment has as its system luteinizing hormone (LH) plasma levels. Kind of experiment: Castrated male rat model, circulating luteinizing hormone (LH). It is filed as in vivo. The note with it: single intravenous 10 mg/kg dose, castrated male Sprague-Dawley rats, 1 hour after dosing.

From the text: Castrated Male Rat Model to Assess the Effect of Compound of Invention on Circulating Levels of Luteinizing Hormone (LH).
Thus, a castrated rat model is used to provide a broad index for measurement of LH inhibition as a marker of test compound inhibition of the GnRH signaling pathway.
Castrated adult male Sprague-Dawley (SD) rats (150-175 g) were purchased from Janvier (St Berthevin, France). […] The animals were allowed 2 weeks of postoperative recovery prior to study. Animals were handled on a daily basis. Standard diet and tap water were provided ad libitum. […] On the study day, animals were acclimated to the procedure room for a period of one hour prior to the initiation of the experiment.
Compounds of the invention were formulated as apyrogen water with 90 g/L (2-Hydroxypropyl)-β-CycloDextrin.
After basal sampling (TO) a single dose of compounds of the invention or vehicle was administrated intravenously to rats. Blood was then collected at 60 min post dosing. Blood samples were obtained via tail vein bleed, drawn into EDTA-containing tubes and centrifuged immediately. […] Serum LH levels were determined using radioimmunoassay kit from RIAZEN—Rat LH, Zentech (Liege, Belgium). Baseline was defined as the initial basal blood sample.

On to `Cc1nc(-c2nnc3n2CCN(C(=O)c2ccc(-c4cccs4)cc2)[C@@H]3C)cs1` [Compound 1, (R)-(8-methyl-3-(2-methylthiazol-4-yl)-5,6-dihydro-[1,2,4]triazolo[4,3-a]pyrazin-7(8H)-yl)(4-(thiophen-2-yl)phenyl) methanone], for which the “circulating LH levels” value was “significantly suppressed”.
With `Cc1csc(-c2nnc3n2CCN(C(=O)c2ccc(-c4cccs4)cc2)[C@@H]3C)n1` [Compound 19, (R)-(8-methyl-3-(4-methylthiazol-2-yl)-5,6-dihydro-[1,2,4]triazolo[4,3-a]pyrazin-7(8H)-yl)(4-(thiophen-2-yl)phenyl)methanone], the “circulating LH levels” value is “significantly suppressed”.

Source of the values: US10683295B2, “Chiral N-acyl-5,6,7(8-substituted)-tetrahydro-[1,2,4]triazolo[4,3-A]pyrazines as selective NK-3 receptor antagonists, pharmaceutical composition, methods for use in NK-3 receptor mediated disorders and chiral synthesis thereof” (Ogeda SA, priority 2011, dated 2020).
